In patent US20260166045A1, “COMBINATION THERAPY COMPRISING GSPT1-DIRECTED MOLECULAR GLUE DEGRADERS AND PI3K/AKT/mTOR PATHWAY INHIBITORS” (Monte Rosa Therapeutics, Inc., priority 2022, published 2026):

What was measured:
NCI-H209 cell line = test: CTG viability, 11x11 concentration matrix, Loewe synergy (SCLC); settings: inhibitor combined with compound 1-1, 11x11 matrix, 72 hours
Method: (§4) Cells were cultured in the media recommended by the supplier.
(§5) On the day before compound addition, cells were seeded in 384-well-plates (white with clear flat bottom) at the densities indicated in Table 6 in 40 μL of growth medium. The next day, compounds were dispensed from 10 mM stocks using a HP D300 dispenser according to the concentration matrices described above. For each cell line, the compound concentration matrices were dispensed twice as side-by-side duplicates on one 384-well-plate. In addition, each plate contained 14 wells with only growth medium and 44 wells with cells treated with DMSO alone to calculate the average background and maximal signals, respectively. The final DMSO concentration was normalized to 0.2% across the plates. Plates were then incubated for 72 hours. CellTiter-Glo® Luminescent Cell Viability Assay (CTG, Promega G7570) reagent was prepared according to the manufacturer's instructions. Plates were equilibrated to room temperature for approximately 30 minutes, 25 μL CTG reagent was added to each well and plates were mixed on an orbital shaker for 10 minutes to allow for cell lysis. After further incubation for 20 minutes at room temperature, the clear bottoms of the plates were pasted with white back seal and luminescence was read on an EnVision plate reader (measurement time 0.1 seconds).

OPM-2 cell line = test: CTG viability, 11x11 concentration matrix, Loewe synergy (multiple myeloma); settings: inhibitor combined with compound 1-1, 11x11 matrix, 72 hours
Method: as §4, §5

NCI-H1876 cell line = test: CTG viability, 11x11 concentration matrix, Loewe synergy (SCLC); settings: inhibitor combined with compound 1-1, 11x11 matrix, 72 hours
Method: as §4, §5

DOHH-2 cell line = test: CTG viability, 11x11 concentration matrix, Loewe synergy (lymphoma); settings: inhibitor combined with compound 1-1, 11x11 matrix, 72 hours
Method: as §4, §5

DB cell line = test: as above; settings: inhibitor combined with compound 1-1, 11x11 matrix, 72 hours
Method: as §4, §5

RAJI cell line = test: as above; settings: inhibitor combined with compound 1-1, 11x11 matrix, 72 hours
Method: as §4, §5

CAL51 xenografts = test: CAL51 cell-derived xenograft (CDX) in vivo combination study; set-up: species or system SCID Beige mice; settings: compound 1-1 3 mg/kg
Method: (§1) Compound 1-1 was formulated every day freshly as a solution in 5% DMSO/95% (30% w/v HPβCD in water). This formulation was also used as vehicle control. Everolimus was formulated as a suspension in 1% MC (400 cps), which was prepared every 3 days.
(§2) Body weights were measured at the same time.
(§3) Compound 1-1 was formulated every day freshly as a solution in 5% DMSO/95% (30% w/v HPβCD in water). This formulation was also used as vehicle control. Alpelisib was formulated as a solution in 20% captisol+80% water (pH adjusted to 4), which was prepared every week.

KMS-34 cell line = test: CTG viability, 11x11 concentration matrix, Loewe synergy (multiple myeloma); settings: inhibitor combined with compound 1-1, 11x11 matrix, 72 hours
Method: as §4, §5

[1] = test system: PDX models LU5188, LU5247, LU5236, LU1508, LU5215, LU5137; test: Lung cancer patient-derived xenograft (PDX) in vivo combination study; set-up: species or system BALB/c nude or NOD/SCID mice; settings: six lung cancer PDX models; everolimus 5 mg/kg qd p.o.
Method: • Models: The study was conducted at Crown Bioscience with the PDX models LU5188 (small cell lung neuroendocrine carcinoma), LU5247 (non-small cell lung adenocarcinoma), LU5236 (small cell lung neuroendocrine carcinoma), LU1508 (small cell lung neuroendocrine carcinoma), LU5215 (small cell lung neuroendocrine carcinoma), and LU5137 (large cell neuroendocrine carcinoma). • Animals: BALB/c nude (LU1508) or NOD/SCID (all other models) female mice, 5-7 weeks old, weighing approximately 22-25 g, were purchased from certified vendors.
Tumor Inoculation: Fresh tumor tissues was harvest from tumor bearing mice, cut into small pieces (approximately 2-3 mm in diameter) and was kept in RPMI1640 cell culture medium at 4° C.). Lidocaine cream was applied to the PDX fragment inoculation site 1 hour before the operation. In addition, hair was removed from NOD/SCID mice before fragment implantation. Each animal was disinfected at the inoculation site with alcohol swap, PDX tumor fragments were inserted subcutaneously at the upper right dorsal flank with a trocar. The trocar was withdrawn any air bubbles under the skin were extruded.
Both compounds were administered orally.
as §2

WSU-DLCL2 cell line = test: CTG viability, 11x11 concentration matrix, Loewe synergy (lymphoma); settings: inhibitor combined with compound 1-1, 11x11 matrix, 72 hours
Method: as §4, §5

NCI-H1836 cell line = test: CTG viability, 11x11 concentration matrix, Loewe synergy (SCLC); settings: inhibitor combined with compound 1-1, 11x11 matrix, 72 hours
Method: as §4, §5

RPMI 8226 cell line = test: CTG viability, 11x11 concentration matrix, Loewe synergy (multiple myeloma); settings: inhibitor combined with compound 1-1, 11x11 matrix, 72 hours
Method: as §4, §5

SU-DHL-6 cell line = test: CTG viability, 11x11 concentration matrix, Loewe synergy (lymphoma); settings: inhibitor combined with compound 1-1, 11x11 matrix, 72 hours
Method: as §4, §5

MM.1S cell line = test: CTG viability, 11x11 concentration matrix, Loewe synergy (multiple myeloma); settings: inhibitor combined with compound 1-1, 11x11 matrix, 72 hours
Method: as §4, §5

NCI-H526 cell line = test: CTG viability, 11x11 concentration matrix, Loewe synergy (SCLC); settings: inhibitor combined with compound 1-1, 11x11 matrix, 72 hours
Method: as §4, §5

U266B1 cell line = test: CTG viability, 11x11 concentration matrix, Loewe synergy (multiple myeloma); settings: inhibitor combined with compound 1-1, 11x11 matrix, 72 hours
Method: as §4, §5

NCI-H69 cell line = test: CTG viability, 11x11 concentration matrix, Loewe synergy (SCLC); settings: inhibitor combined with compound 1-1, 11x11 matrix, 72 hours
Method: as §4, §5

MCF7 xenografts = test: MCF7 cell-derived xenograft (CDX) in vivo combination study; set-up: species or system BALB/c nude mice; settings: compound 1-1 10 mg/kg
Method: […] (0.36 mg) pellets (Innovative Research of America Cat. No.: SE-121, pellet size: 3.0 mm) were implanted 2-3 days before cell inoculation.
as §1, §2
An approximation of drug interactions was made using the method described by Clarke (Clarke et al. 1997. Breast Cancer Res Treat. 46(2-3):255-78). This was applied to […] and can estimate interactions from limited data. In short, for compound A, B, or the combination AB (with control group C), antagonism is predicted when (AB)/C>(A/C)×(B/C), an additive effect is predicted when (AB)/C=(A/C)×(B/C), and synergistic interaction is predicted to occur when (AB)/C<(A/C)×(B/C). Calculations in Table 10B indicate that the interaction of everolimus and compound 1-1 in the MCF7 CDX model is synergistic.
17β-Estradiol (0.36 mg) pellets (Innovative Research of America Cat. No.: SE-121, pellet size: 3.0 mm) were implanted 2-3 days before cell inoculation.
as §3

Structure (SMILES): CO[C@H]1C[C@@H]2CC[C@@H](C)[C@@](O)(O2)C(=O)C(=O)N2CCCC[C@H]2C(=O)O[C@H]([C@H](C)C[C@@H]2CC[C@@H](OCCO)[C@H](OC)C2)CC(=O)[C@H](C)/C=C(\C)[C@@H](O)[C@@H](OC)C(=O)[C@H](C)C[C@H](C)/C=C/C=C/C=C/1C [Everolimus, (1R,9S,12S,15R,16E,18R,19R,21R,23S,24E,26E,28E,30S,32S,35R)-1,18-dihydroxy-12-[(2R)-1-[(1S,3R,4R)-4-(2-hydroxyethoxy)-3-methoxycyclohexyl]propan-2-yl]-19,30-dimethoxy-15,17,21,23,29,35-hexamethyl-11,36-dioxa-4-azatricyclo[30.3.1.0^4,9]hexatriaconta-16,24,26,28-tetraene-2,3,10,14,20-pentone]
- Mean Loewe synergy score, NCI-H209 (NCI-H209 cell line): 6.14
- Mean Loewe synergy score, OPM-2 (OPM-2 cell line): 5.3
- Mean Loewe synergy score, NCI-H1876 (NCI-H1876 cell line): −0.29
- Mean Loewe synergy score, DOHH2 (DOHH-2 cell line): 6.48
- Mean Loewe synergy score, DB (DB cell line): 5.81
- Mean Loewe synergy score, RAJI (RAJI cell line): 14.66
- antitumor effect vs vehicle (tumor volume) (CAL51 xenografts; day 21, ANOVA with post hoc Tukey's test, everolimus 2 mg/kg, p.o. qd): did not significantly impede tumor growth
- Δ TV ratio to vehicle group (A/C, B/C, (AB)/C) (CAL51 xenografts; day 21, Clarke method, everolimus 2 mg/kg, p.o. qd): 0.87
- Δ TV (delta tumor volume) (CAL51 xenografts; day 21, everolimus 2 mg/kg, combination 2 + 3 mg/kg, p.o. qd for 21 days, average of four tumors): 491 mm3
- Mean Loewe synergy score, KMS-34 (KMS-34 cell line): 16.19
- body weight loss [1]: Body weight loss was caused by everolimus dosing
- Mean Loewe synergy score, WSU-DLCL2 (WSU-DLCL2 cell line): 8.29
- Mean Loewe synergy score, NCI-H1836 (NCI-H1836 cell line): 1.58
- Mean Loewe synergy score, RPMI 8226 (RPMI 8226 cell line): 20.75
- Mean Loewe synergy score, SUDHL6 (SU-DHL-6 cell line): 12.05
- Mean Loewe synergy score, MM.1S (MM.1S cell line): 6.7
- Mean Loewe synergy score, NCI-H526 (NCI-H526 cell line): 6.49
- Mean Loewe synergy score, U266B1 (U266B1 cell line): 4.16
- Mean Loewe synergy score, NCI-H69 (NCI-H69 cell line): 9.46
- antitumor effect vs vehicle (tumor volume) (MCF7 xenografts; day 28, ANOVA with post hoc Tukey's test, everolimus 2 mg/kg, p.o. qd): statistically significant antitumor effects
- Δ TV ratio to vehicle group (A/C, B/C, (AB)/C) (MCF7 xenografts; day 28, Clarke method, everolimus 2 mg/kg, p.o. qd): 0.26
- Δ TV (delta tumor volume) (MCF7 xenografts; day 28, everolimus 2 mg/kg, combination 2 + 10 mg/kg, p.o. qd for 28 days, average of four tumors): 164 mm3
